Measurements published in ChEMBL document CHEMBL5346906, “Discovery of novel tranylcypromine-based derivatives as LSD1 inhibitors for gastric cancer treatment” (Eur J Med Chem, 2023).
pIC50: −log10 of the molar value. Activity calls are given as the source filed them. The calls are words filed in the database; no cut-off is given here.

Assays:
[1] = biological target: T1, Lysine-specific histone demethylase 1A (Homo sapiens, UniProt O60341); assay: Inhibition of recombinant LSD1 (unknown origin) preincubated for 10 mins in presence of H3K4Me2 measured after 30 mins by measuring fluorescence intensity by fluorescence based microplate reader
HCT-116 = assay: Antiproliferative activity against human HCT-116 cells incubated for 48 hrs measured by MTT assay; format: functional, cell-based; settings: HCT-116, 48 h
KYSE-450 = assay: Antiproliferative activity against human KYSE-450 cells incubated for 48 hrs measured by MTT assay; format: functional, cell-based; settings: KYSE-450, 48 h
MGC-803 = assay: Antiproliferative activity against human MGC-803 cells incubated for 48 hrs measured by MTT assay; format: functional, cell-based; settings: MGC-803, 48 h
[2] = biological target: T1, Lysine-specific histone demethylase 1A; assay: Inhibition of LSD1 in human MGC-803 cells assessed as increase in methylation of H3K4 at 24 micromol/L; format: cell-based; settings: dose 24.0 µmol/L
[3] = biological target: T1, Lysine-specific histone demethylase 1A; assay: Inhibition of LSD1 in human MGC-803 cells assessed as increase in methylation of H3K9 at 24 micromol/L; format: cell-based; settings: dose 24.0 µmol/L

Work on CCCCNC(=O)c1cccc(CN[C@@H]2C[C@H]2c2ccc(F)c(F)c2)c1 yielded a pIC50 [1] of 6.69.

CCN1CCN(c2ccc(NC(=O)c3cccc(CN[C@@H]4C[C@H]4c4ccc(F)c(F)c4)c3)cc2)CC1 showed a pIC50 [1] of 7.37, a pIC50 (HCT-116) of 4.55 and a pIC50 (KYSE-450) of 4.61. It also gave a pIC50 (MGC-803) of 4.55.

CN1CCN(S(=O)(=O)c2cccc(NC(=O)c3cccc(CN[C@@H]4C[C@H]4c4ccc(F)c(F)c4)c3)c2)CC1 showed a pIC50 [1] of 6.49.

In the case of CN1CCN(c2ccc(NC(=O)c3cccc(CN[C@@H]4C[C@H]4c4ccc(F)c(F)c4)c3)cc2)CC1, the pIC50 [1] was 6.60.

With O=C(O)c1ccc(CN2CCC(CN[C@@H]3C[C@H]3c3ccccc3)CC2)cc1 [GSK2879552] the pIC50 (HCT-116) was under 4.19, the pIC50 (KYSE-450) was under 4.19 and the pIC50 (MGC-803) was under 4.19.

COCCNC(=O)c1cccc(CN[C@@H]2C[C@H]2c2ccc(F)c(F)c2)c1 gave a pIC50 [1] of 6.64.

For O=C(Nc1ccc(N2CCOCC2)c(F)c1)c1cccc(CN[C@@H]2C[C@H]2c2ccc(F)c(F)c2)c1, the pIC50 [1] was 6.60.

With c1ccc([C@@H]2C[C@H]2NC2CCNCC2)cc1 the inhibition [2] was “Active”, the pIC50 (HCT-116) was under 4.19 and the inhibition [3] was “Active”. For the same compound, the pIC50 (KYSE-450) was under 4.19 and the pIC50 (MGC-803) was under 4.19.

O=C(c1cccc(CN[C@@H]2C[C@H]2c2ccc(F)c(F)c2)c1)N1CC2CCCCC2C1 (stereo not given in full) gave a pIC50 [1] of 7.24, a pIC50 (HCT-116) of 4.25 and a pIC50 (KYSE-450) of 4.16. It also gave a pIC50 (MGC-803) of 4.29.

O=C(c1cccc(CN[C@@H]2C[C@H]2c2ccc(F)c(F)c2)c1)N1CCc2ccccc21 showed a pIC50 [1] of 7.58, a pIC50 (HCT-116) of 4.30 and a pIC50 (KYSE-450) of 4.29. It also gave a pIC50 (MGC-803) of 4.47.

Compound CN(Cc1ccccc1)C(=O)c1cccc(CN[C@@H]2C[C@H]2c2ccc(F)c(F)c2)c1 has a pIC50 [1] of 7.38.

For NC1CCN(C(=O)c2cccc(CN[C@@H]3C[C@H]3c3ccc(F)c(F)c3)c2)CC1, the pIC50 [1] was 6.18.

Compound O=C(c1cccc(CN[C@@H]2C[C@H]2c2ccc(F)c(F)c2)c1)N1CCN(c2ccccc2)CC1 has a pIC50 [1] of 7.25.

Cc1ccc(NC(=O)c2cccc(CN[C@@H]3C[C@H]3c3ccc(F)c(F)c3)c2)cc1 showed a pIC50 [1] of 7.44.

In the case of COC(=O)c1cccc(NC(=O)c2cccc(CN[C@@H]3C[C@H]3c3ccc(F)c(F)c3)c2)c1, the pIC50 [1] was 7.49, the pIC50 (HCT-116) was 4.34 and the pIC50 (KYSE-450) was 4.17. The pIC50 (MGC-803) was 4.30.

Compound O=C(c1cccc(CN[C@@H]2C[C@H]2c2ccc(F)c(F)c2)c1)N1CCC(O)CC1 has a pIC50 [1] of 6.85.

CN1CCN(C(=O)c2cccc(CN[C@@H]3C[C@H]3c3ccc(F)c(F)c3)c2)CC1 gave a pIC50 [1] of 6.65.

Work on O=C(NC1CC(F)(F)C1)c1cccc(CN[C@@H]2C[C@H]2c2ccc(F)c(F)c2)c1 yielded a pIC50 [1] of 6.94, a pIC50 (HCT-116) of 4.24 and a pIC50 (KYSE-450) of 4.19. It also gave a pIC50 (MGC-803) of 4.26.

NCC1CCN(C(=O)c2cccc(CN[C@@H]3C[C@H]3c3ccc(F)c(F)c3)c2)CC1 was tested, and the pIC50 [1] was 6.74, the pIC50 (HCT-116) was under 3.89 and the pIC50 (KYSE-450) was under 3.89. It also gave a pIC50 (MGC-803) of under 3.89.

Compound O=C(O)c1cccc(CN[C@@H]2C[C@H]2c2ccc(F)c(F)c2)c1 has a pIC50 [1] of 6.29.

In the case of NC(=O)C1CCN(C(=O)c2cccc(CN[C@@H]3C[C@H]3c3ccc(F)c(F)c3)c2)CC1, the pIC50 [1] was 6.97, the pIC50 (HCT-116) was under 3.89 and the pIC50 (KYSE-450) was under 3.89. For the same compound, the pIC50 (MGC-803) was under 3.89.

O=C(Nc1cccc(S(=O)(=O)N2CCOCC2)c1)c1cccc(CN[C@@H]2C[C@H]2c2ccc(F)c(F)c2)c1 was tested, and the pIC50 [1] was 7.49, the pIC50 (HCT-116) was 4.44 and the pIC50 (KYSE-450) was 4.41. For the same compound, the pIC50 (MGC-803) was 4.53.

In the case of O=C(NCC1CCNCC1)c1cccc(CN[C@@H]2C[C@H]2c2ccc(F)c(F)c2)c1, the pIC50 [1] was 6.76.

In the case of NC(=O)CNC(=O)c1cccc(CN[C@@H]2C[C@H]2c2ccc(F)c(F)c2)c1, the pIC50 [1] was 6.97.

Work on O=C(O)c1cccc(NC(=O)c2cccc(CN[C@@H]3C[C@H]3c3ccc(F)c(F)c3)c2)c1 yielded a pIC50 [1] of 6.32.
